How the values were obtained:
[1] = tested on: human Notch 3; assay: Notch-CBF1 Transactivation Assay (Notch 3); assay type: cell-based; conditions: read-out: Notch 3 IC50; Notch-CBF1 transactivation luciferase assay in transfected HeLa cells; some values are an average of N experiments
Excerpt: (§1) Notch-CBF1 Transactivation Assay
(§2) The Notch-CBF1 (C-promoter binding factor I) cell based transactivation assay is based on the ability of the released Notch intracellular domain fragments (NICDs) to function as transcription factors in conjunction with CBF1 and other nuclear factors. Luciferase assays were used to measure the antagonism of Notch-CBF1 transcriptional activity. HeLa cervical cancer cells are transiently co-transfected with pCDNA3.1/Hygro plasmids containing truncated Notch 1, Notch 2, Notch 3, or Notch 4 receptors and a PGL3 luciferase reporter vector containing 4 copies of CBF1 binding site. The cells were then tested for Notch-CBF1 activity in the absence or presence of test compounds. HeLa cells, maintained in DMEM (high glucose with HEPES), 1× glutamine/penicillin/streptomycin and 10% Fetal Bovine serum, were transiently transfected in a T175 Flask (4.5×10^6 cells/flask) using the Monster Transfection Kit (Minis #MIR2906) according to manufacturers specifications. Table 13 denotes respective DNA quantity for the transfections.
(§3) Assay media (5 μL) containing test compounds in final concentrations ranging from 5 μM to 8.4×10^−5 μM (3 fold serial dilutions) were added to the cells and the cell plates were then incubated for 18 hours at 37° C. and 5% CO2. Control wells contained DMSO vehicle (total counts) or 0.5 μM of an in-house small molecule inhibitor (background counts). Duplicates were used for each sample. Luciferase activity was measured after a 20-minute incubation with 50 μl STEADY-GLO® luciferase reagents according to manufacturer's specifications (Promega, Cat. #E2550) and analyzed by Envision plate reader (PerkinElmer, Boston, Mass.).
(§4) The antagonist effect of compounds was expressed as 100×[1−(average sample−average background)/(average total−average background)] where sample is the luciferase activity in the presence of test compound, background is equal to the luciferase activity in the presence of the small molecule inhibitor control and the total is signal induced in DMSO wells.

[2] = human metabolic stability half-life assay; conditions: microsomes, human liver microsomes
Protocol: Metabolic Stability Half-Life Panel
Incubation with Liver Microsomes

[3] = tested on: human Notch 1; assay: Notch-CBF1 Transactivation Assay (Notch 1); assay type: cell-based; conditions: read-out: Notch 1 IC50; Notch-CBF1 transactivation luciferase assay in transfected HeLa cells; some values are an average of N experiments
Excerpt: as §1, §2, §3, §4

[4] = pH 7.4, CYP-mediated metabolic stability half life, NADPH-dependent
[5] = pH 7.4, HLM (t1/2, min), CYP-mediated (NADPH-dependent), 0.5 μM compound, 45 min time course, some values are an average of N experiments

Row | SMILES | IC50 [1] | half-life at 0.5 µM [2, 4] | half-life at 0.5 µM [2, 5] | IC50 [3]
1 | NC(=O)[C@@H](CC1CC1)[C@@H](CCC(F)(F)F)C(=O)N[C@H]1N=C(c2ccc(Cl)cc2)c2cccc(Cl)c2NC1=O [Example 27, (2R,3S)—N-((3S)-9-Chloro-5-(4-chlorophenyl)-2-oxo-2,3-dihydro-1H-1,4-benzodiazepin-3-yl)-3-(cyclopropylmethyl)-2-(3,3,3-trifluoropropyl)succinamide] | 1.6 nM | ≥ 30 min | 81 min | 4.6 nM
2 | COc1cccc2c1NC(=O)[C@@H](NC(=O)[C@H](CCC(F)(F)F)[C@H](CC1CC1)C(N)=O)N=C2c1ccc(Cl)cc1 [Example 21, (2R,3S)—N-((3S)-5-(4-Chlorophenyl)-9-methoxy-2-oxo-2,3-dihydro-1H-1,4-benzodiazepin-3-yl)-3-(cyclopropylmethyl)-2-(3,3,3-trifluoropropyl)succinamide] | 2.4 nM | ≥ 30 min | 62 min | 2.4 nM
3 | NC(=O)[C@@H](CC1CC1)[C@@H](CCC(F)(F)F)C(=O)N[C@H]1N=C(c2ccc(Cl)cc2)c2cccc(C3CC3)c2NC1=O [Example 7, (2R,3S)—N-((3S)-5-(4-Chlorophenyl)-9-cyclopropyl-2-oxo-2,3-dihydro-1H-1,4-benzodiazepin-3-yl)-3-(cyclopropylmethyl)-2-(3,3,3-trifluoropropyl)succinamide] | 3.3 nM | ≥ 30 min | 97 min | 2 nM
4 | COc1cccc2c1NC(=O)[C@@H](NC(=O)[C@H](CCC(F)(F)F)[C@H](CC1(C)CC1)C(N)=O)N=C2c1ccccc1 [Example 33, (2R,3S)—N-((3S)-9-Methoxy-2-oxo-5-phenyl-2,3-dihydro-1H-1,4-benzodiazepin-3-yl)-3-((1-methylcyclopropyl)methyl)-2-(3,3,3-trifluoropropyl)succinamide] | 5.9 nM | ≥ 30 min | 47 min | 3.8 nM
5 | NC(=O)[C@@H](CC1CC1)[C@@H](CCC(F)(F)F)C(=O)N[C@H]1N=C(c2cccc(F)c2)c2cccc(OC3CC3)c2NC1=O [Example 5, (2R,3S)-3-(Cyclopropylmethyl)-N-((3S)-9-(cyclopropyloxy)-5-(3-fluorophenyl)-2-oxo-2,3-dihydro-1H-1,4-benzodiazepin-3-yl)-2-(3,3,3-trifluoropropyl)succinamide] | 8.9 nM | ≥ 30 min | 74 min | 5.1 nM
6 | Cc1cccc(C2=N[C@H](NC(=O)[C@H](CCC(F)(F)F)[C@H](CC3CC3)C(N)=O)C(=O)Nc3c(O)cccc32)c1 [Example 8, (2R,3S)-3-(Cyclopropylmethyl)-N-((3S)-9-hydroxy-5-(3-methylphenyl)-2-oxo-2,3-dihydro-1H-1,4-benzodiazepin-3-yl)-2-(3,3,3-trifluoropropyl)succinamide] | 15.7 nM | ≥ 30 min | 37 min | 5.6 nM
7 | NC(=O)[C@@H](CC1CC1)[C@@H](CCC(F)(F)F)C(=O)N[C@H]1N=C(c2ccccc2)c2ccc(Cl)c(Cl)c2NC1=O [Example 34, (2R,3S)-3-(Cyclopropylmethyl)-N-((3S)-8,9-dichloro-2-oxo-5-phenyl-2,3-dihydro-1H-1,4-benzodiazepin-3-yl)-2-(3,3,3-trifluoropropyl)succinamide] | 7.4 nM | ≥ 30 min | > 120 min | 4.7 nM
8 | NC(=O)[C@@H](CC1CC1)[C@@H](CCC(F)(F)F)C(=O)N[C@H]1N=C(c2ccccc2)c2cccc(Cl)c2NC1=O [Example 42, (2R,3S)—N-((3S)-9-Chloro-2-oxo-5-phenyl-2,3-dihydro-1H-1,4-benzodiazepin-3-yl)-3-(cyclopropylmethyl)-2-(3,3,3-trifluoropropyl)succinamide] | 3.5 nM | ≥ 30 min | 87 min | 1.9 nM
9 | COc1cccc2c1NC(=O)[C@@H](NC(=O)[C@H](CCC(F)(F)F)[C@H](CC1CC1)C(N)=O)N=C2c1ccccc1 [Example 38, (2R,3S)-3-(Cyclopropylmethyl)-N-((3S)-9-methoxy-2-oxo-5-phenyl-2,3-dihydro-1H-1,4-benzodiazepin-3-yl)-2-(3,3,3-trifluoropropyl)succinamide] | 3.3 nM | ≥ 30 min | 70 min | 2.3 nM
10 | COc1cccc2c1NC(=O)[C@@H](NC(=O)[C@H](CCC(F)(F)F)[C@H](CC1CC1)C(N)=O)N=C2c1cccc(C(F)(F)F)c1 [Example 2, (2R,3S)-3-(Cyclopropylmethyl)-N-((3S)-9-methoxy-2-oxo-5-(3-(trifluoromethyl)phenyl)-2,3-dihydro-1H-1,4-benzodiazepin-3-yl)-2-(3,3,3-trifluoropropyl)succinamide] | 1.5 nM | ≥ 30 min | 46 min | 1.7 nM
11 | CCC[C@H](C(N)=O)[C@@H](CCC(F)(F)F)C(=O)N[C@H]1N=C(c2ccccc2)c2cccc(O)c2NC1=O [Example 41, (2R,3S)—N-((3S)-9-Hydroxy-2-oxo-5-phenyl-2,3-dihydro-1H-1,4-benzodiazepin-3-yl)-3-propyl-2-(3,3,3-trifluoropropyl)succinamide] | 12.4 nM | ≥ 30 min | 45 min | 9.1 nM
12 | Cc1cc(F)c2c(c1)C(c1ccccc1)=N[C@H](NC(=O)[C@H](CCC(F)(F)F)[C@H](CC1CC1)C(N)=O)C(=O)N2 [Example 17, (2R,3S)-3-(Cyclopropylmethyl)-N-((3S)-9-fluoro-7-methyl-2-oxo-5-phenyl-2,3-dihydro-1H-1,4-benzodiazepin-3-yl)-2-(3,3,3-trifluoropropyl)succinamide] | 26.4 nM | ≥ 30 min | 60 min | 9.7 nM
13 | NC(=O)[C@@H](CC1CC1)[C@@H](CCC(F)(F)F)C(=O)N[C@H]1N=C(c2ccccc2)c2cccc(C3CC3)c2NC1=O [Example 14, (2R,3S)-3-(Cyclopropylmethyl)-N-(9-cyclopropyl-2-oxo-5-phenyl-2,3-dihydro-1H-1,4-benzodiazepin-3-yl)-2-(3,3,3-trifluoropropyl)succinamide] | 5.1 nM | ≥ 30 min | 41 min | 4.3 nM
14 | COc1cccc(C2=N[C@H](NC(=O)[C@H](CCC(F)(F)F)[C@H](CC3CC3)C(N)=O)C(=O)Nc3c(F)cccc32)c1 [Example 22, (2R,3S)-3-(Cyclopropylmethyl)-N-((3S)-9-fluoro-5-(3-methoxyphenyl)-2-oxo-2,3-dihydro-1H-1,4-benzodiazepin-3-yl)-2-(3,3,3-trifluoropropyl)succinamide] | 12.5 nM | ≥ 30 min | 32 min | 12.9 nM
15 | Cc1cccc(C2=N[C@H](NC(=O)[C@H](CCC(F)(F)F)[C@H](CC3CC3)C(N)=O)C(=O)Nc3c(F)cccc32)c1 [Example 19, (2R,3S)-3-(Cyclopropylmethyl)-N-((3S)-9-fluoro-5-(3-methylphenyl)-2-oxo-2,3-dihydro-1H-1,4-benzodiazepin-3-yl)-2-(3,3,3-trifluoropropyl)succinamide] | 7.2 nM | ≥ 30 min | 56 min | 2.7 nM
16 | CCC[C@H](C(N)=O)[C@@H](CCC(F)(F)F)C(=O)N[C@H]1N=C(c2ccccc2)c2cccc(C#N)c2NC1=O [Example 32, (2R,3S)—N-((3S)-9-Cyano-2-oxo-5-phenyl-2,3-dihydro-1H-1,4-benzodiazepin-3-yl)-3-propyl-2-(3,3,3-trifluoropropyl)succinamide] | 19.7 nM | ≥ 30 min | 55 min | 8.3 nM
17 | NC(=O)[C@@H](CC1CC1)[C@@H](CCC(F)(F)F)C(=O)N[C@H]1N=C(c2cccc(Cl)c2)c2cccc(Cl)c2NC1=O [Example 26, (2R,3S)—N-((3S)-9-Chloro-5-(3-chlorophenyl)-2-oxo-2,3-dihydro-1H-benzo[e][1,4]diazepin-3-yl)-3-(cyclopropylmethyl)-2-(3,3,3-trifluoropropyl)succinamide] | 2.1 nM | ≥ 30 min | 96 min | 1.9 nM
18 | COc1cccc2c1NC(=O)[C@@H](NC(=O)[C@H](CCC(F)(F)F)[C@H](CC1CC1)C(N)=O)N=C2c1cccc(F)c1 [Example 4, (2R,3S)-3-(Cyclopropylmethyl)-N-((3S)-5-(3-fluorophenyl)-9-methoxy-2-oxo-2,3-dihydro-1H-1,4-benzodiazepin-3-yl)-2-(3,3,3-trifluoropropyl)succinamide] | 8.1 nM | ≥ 30 min | 83 min | 4.2 nM

— patent US9242941B2, “Alkyl, fluoroalkyl-1,4-benzodiazepinone compounds” (BRISTOL-MYERS SQUIBB COMPANY, priority 2012, dated 2016)
